From ChEMBL document CHEMBL4321837, “Discovery of Potent and Orally Effective Dual Janus Kinase 2/FLT3 Inhibitors for the Treatment of Acute Myelogenous Leukemia and Myeloproliferative Neoplasms” (J Med Chem, 2019)

How the values were obtained:
[1] = system: MV4-11; experiment: Antiproliferative activity against FLT3-ITD-positive human MV4-11 cells assessed as reduction in cell growth after 72 hrs by MTT assay; type: functional, cell-based; conditions: MV4-11, 72 h
[2] = system: MOLM-13; experiment: Antiproliferative activity against FLT3-ITD-positive human MOLM13 cells assessed as reduction in cell growth after 72 hrs by MTT assay; type: functional, cell-based; conditions: MOLM-13, 72 h
[3] = target: T1, Tyrosine-protein kinase JAK1 (Homo sapiens, UniProt P23458); experiment: Inhibition of human JAK1 (866 to end residues) assessed as residual activity at 100 nM using GEEPLYWSFPAKK as substrate after 40 mins in presence of [gamma33P]-ATP by scintillation counting based radiometric assay relative to control
T1 sequence (P23458 whole entry): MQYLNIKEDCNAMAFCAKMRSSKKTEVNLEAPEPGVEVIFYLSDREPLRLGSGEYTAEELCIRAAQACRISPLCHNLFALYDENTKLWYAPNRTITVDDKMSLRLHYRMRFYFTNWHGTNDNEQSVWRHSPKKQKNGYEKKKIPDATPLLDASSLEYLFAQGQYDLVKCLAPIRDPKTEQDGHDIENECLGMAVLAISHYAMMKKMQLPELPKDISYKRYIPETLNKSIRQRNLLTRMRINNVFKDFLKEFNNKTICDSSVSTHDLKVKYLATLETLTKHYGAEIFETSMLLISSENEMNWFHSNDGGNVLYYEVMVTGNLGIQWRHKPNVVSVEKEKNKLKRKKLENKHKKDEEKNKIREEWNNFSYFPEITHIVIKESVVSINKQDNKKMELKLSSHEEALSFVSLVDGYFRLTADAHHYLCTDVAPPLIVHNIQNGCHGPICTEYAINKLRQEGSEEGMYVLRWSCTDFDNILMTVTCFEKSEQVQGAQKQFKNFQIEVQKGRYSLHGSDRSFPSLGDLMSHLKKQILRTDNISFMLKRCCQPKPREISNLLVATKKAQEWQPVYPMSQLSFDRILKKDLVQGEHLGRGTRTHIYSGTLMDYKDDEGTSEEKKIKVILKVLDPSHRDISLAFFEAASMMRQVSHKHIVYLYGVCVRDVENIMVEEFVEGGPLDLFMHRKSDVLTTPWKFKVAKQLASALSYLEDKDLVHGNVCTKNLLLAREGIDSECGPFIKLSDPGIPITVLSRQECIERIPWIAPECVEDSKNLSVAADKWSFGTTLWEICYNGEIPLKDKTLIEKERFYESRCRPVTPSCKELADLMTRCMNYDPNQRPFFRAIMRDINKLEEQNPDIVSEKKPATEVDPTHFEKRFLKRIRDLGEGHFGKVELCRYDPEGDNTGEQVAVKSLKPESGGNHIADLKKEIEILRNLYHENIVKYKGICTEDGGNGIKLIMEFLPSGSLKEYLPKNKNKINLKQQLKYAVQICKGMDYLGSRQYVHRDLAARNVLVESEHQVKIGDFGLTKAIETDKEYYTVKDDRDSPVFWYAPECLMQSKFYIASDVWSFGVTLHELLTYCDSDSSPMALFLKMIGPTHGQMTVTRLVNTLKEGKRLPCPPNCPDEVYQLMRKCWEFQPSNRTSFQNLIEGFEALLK

[4] = target: T2, Tyrosine-protein kinase JAK2 (Homo sapiens, UniProt O60674); experiment: Inhibition of human JAK2 (808 to end residues) assessed as residual activity at 100 nM using KTFCGTPEYLAP as substrate after 40 mins in presence of [gamma33P]-ATP by scintillation counting based radiometric assay relative to control
T2 sequence (O60674 whole entry): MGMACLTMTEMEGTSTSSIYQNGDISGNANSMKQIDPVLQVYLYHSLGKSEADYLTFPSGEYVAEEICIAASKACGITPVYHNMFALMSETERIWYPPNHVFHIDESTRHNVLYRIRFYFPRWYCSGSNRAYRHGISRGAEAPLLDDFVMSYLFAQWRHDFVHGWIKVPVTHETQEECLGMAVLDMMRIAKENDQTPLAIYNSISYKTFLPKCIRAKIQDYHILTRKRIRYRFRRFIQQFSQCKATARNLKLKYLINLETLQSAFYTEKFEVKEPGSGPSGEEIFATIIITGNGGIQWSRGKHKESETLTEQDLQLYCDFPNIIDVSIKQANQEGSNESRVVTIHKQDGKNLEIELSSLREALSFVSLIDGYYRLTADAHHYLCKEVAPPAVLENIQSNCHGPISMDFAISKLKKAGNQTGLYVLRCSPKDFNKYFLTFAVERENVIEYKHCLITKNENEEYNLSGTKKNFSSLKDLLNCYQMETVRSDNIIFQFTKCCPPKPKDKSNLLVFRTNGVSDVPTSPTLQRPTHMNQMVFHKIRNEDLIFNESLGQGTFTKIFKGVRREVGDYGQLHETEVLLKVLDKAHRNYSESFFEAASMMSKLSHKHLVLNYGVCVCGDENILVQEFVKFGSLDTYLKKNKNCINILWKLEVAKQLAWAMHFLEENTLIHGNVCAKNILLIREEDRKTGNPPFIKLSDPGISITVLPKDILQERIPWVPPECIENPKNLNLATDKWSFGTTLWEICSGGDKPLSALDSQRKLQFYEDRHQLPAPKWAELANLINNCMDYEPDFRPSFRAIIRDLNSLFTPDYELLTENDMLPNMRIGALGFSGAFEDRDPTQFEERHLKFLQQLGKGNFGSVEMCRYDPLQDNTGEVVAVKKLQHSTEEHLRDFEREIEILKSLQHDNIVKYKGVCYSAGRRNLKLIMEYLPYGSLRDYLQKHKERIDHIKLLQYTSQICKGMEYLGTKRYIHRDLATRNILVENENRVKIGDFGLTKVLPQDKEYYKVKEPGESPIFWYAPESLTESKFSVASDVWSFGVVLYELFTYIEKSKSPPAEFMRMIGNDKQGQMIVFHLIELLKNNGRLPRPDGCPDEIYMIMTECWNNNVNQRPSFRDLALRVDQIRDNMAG

[5] = target: T3, Tyrosine-protein kinase JAK3 (Homo sapiens) (UniProt P52333); experiment: Inhibition of human JAK3 (781 to end residues) assessed as residual activity at 100 nM using GGEEEEYFELVKK as substrate after 40 mins in presence of [gamma33P]-ATP by scintillation counting based radiometric assay relative to control
T3 sequence (whole entry): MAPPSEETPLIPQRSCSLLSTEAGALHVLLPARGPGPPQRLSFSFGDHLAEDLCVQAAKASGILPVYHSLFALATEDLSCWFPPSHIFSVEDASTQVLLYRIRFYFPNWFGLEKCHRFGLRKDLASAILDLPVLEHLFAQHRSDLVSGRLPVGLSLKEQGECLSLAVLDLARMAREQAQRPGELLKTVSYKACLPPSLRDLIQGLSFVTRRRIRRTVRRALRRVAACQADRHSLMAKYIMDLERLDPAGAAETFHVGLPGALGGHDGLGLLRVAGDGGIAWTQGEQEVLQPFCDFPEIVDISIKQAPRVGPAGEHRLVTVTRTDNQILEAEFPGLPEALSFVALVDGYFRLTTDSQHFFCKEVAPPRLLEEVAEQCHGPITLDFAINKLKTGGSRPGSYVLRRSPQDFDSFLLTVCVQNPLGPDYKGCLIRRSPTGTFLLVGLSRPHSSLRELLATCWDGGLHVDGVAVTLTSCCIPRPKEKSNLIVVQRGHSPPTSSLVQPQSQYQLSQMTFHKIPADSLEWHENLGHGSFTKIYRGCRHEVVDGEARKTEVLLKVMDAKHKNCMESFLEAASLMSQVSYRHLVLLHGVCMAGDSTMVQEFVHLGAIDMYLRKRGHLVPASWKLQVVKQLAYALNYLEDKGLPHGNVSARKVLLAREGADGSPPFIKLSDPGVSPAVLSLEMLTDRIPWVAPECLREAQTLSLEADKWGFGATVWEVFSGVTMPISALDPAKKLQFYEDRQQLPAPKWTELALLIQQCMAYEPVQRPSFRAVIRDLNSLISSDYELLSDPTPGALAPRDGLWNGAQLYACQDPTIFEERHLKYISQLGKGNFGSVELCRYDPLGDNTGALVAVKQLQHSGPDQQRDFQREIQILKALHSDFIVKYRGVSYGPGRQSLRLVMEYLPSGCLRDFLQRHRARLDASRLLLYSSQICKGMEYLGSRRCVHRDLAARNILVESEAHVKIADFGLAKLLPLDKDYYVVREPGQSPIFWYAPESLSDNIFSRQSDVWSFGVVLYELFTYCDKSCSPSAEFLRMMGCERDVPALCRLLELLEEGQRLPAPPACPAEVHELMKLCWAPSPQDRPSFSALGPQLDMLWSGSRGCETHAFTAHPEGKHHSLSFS

[6] = target: Receptor-type tyrosine-protein kinase FLT3 (Homo sapiens) (UniProt P36888); experiment: Inhibition of human FLT3 (564 to end residues) assessed as residual activity at 100 nM using EAIYAAPFAKKK as substrate after 40 mins in presence of [gamma33P]-ATP by scintillation counting based radiometric assay relative to control
[7] = target: T1, Tyrosine-protein kinase JAK1; experiment: Inhibition of human JAK1 (866 to end residues) GEEPLYWSFPAKK as substrate after 40 mins in presence of [gamma33P]-ATP by scintillation counting based radiometric assay
[8] = target: T2, Tyrosine-protein kinase JAK2; experiment: Inhibition of human JAK2 (808 to end residues) using KTFCGTPEYLAP as substrate after 40 mins in presence of [gamma33P]-ATP by scintillation counting based radiometric assay
[9] = target: T4, Tyrosine-protein kinase JAK3 (Homo sapiens, UniProt P52333); experiment: Inhibition of human JAK3 (781 to end residues) using GGEEEEYFELVKK as substrate after 40 mins in presence of [gamma33P]-ATP by scintillation counting based radiometric assay
T4 sequence (P52333 whole entry): T3 sequence (whole entry)

[10] = target: T5, Receptor-type tyrosine-protein kinase FLT3 (Homo sapiens, UniProt P36888); experiment: Inhibition of human FLT3 (564 to end residues) using EAIYAAPFAKKK as substrate after 40 mins in presence of [gamma33P]-ATP by scintillation counting based radiometric assay
T5 sequence (P36888 whole entry): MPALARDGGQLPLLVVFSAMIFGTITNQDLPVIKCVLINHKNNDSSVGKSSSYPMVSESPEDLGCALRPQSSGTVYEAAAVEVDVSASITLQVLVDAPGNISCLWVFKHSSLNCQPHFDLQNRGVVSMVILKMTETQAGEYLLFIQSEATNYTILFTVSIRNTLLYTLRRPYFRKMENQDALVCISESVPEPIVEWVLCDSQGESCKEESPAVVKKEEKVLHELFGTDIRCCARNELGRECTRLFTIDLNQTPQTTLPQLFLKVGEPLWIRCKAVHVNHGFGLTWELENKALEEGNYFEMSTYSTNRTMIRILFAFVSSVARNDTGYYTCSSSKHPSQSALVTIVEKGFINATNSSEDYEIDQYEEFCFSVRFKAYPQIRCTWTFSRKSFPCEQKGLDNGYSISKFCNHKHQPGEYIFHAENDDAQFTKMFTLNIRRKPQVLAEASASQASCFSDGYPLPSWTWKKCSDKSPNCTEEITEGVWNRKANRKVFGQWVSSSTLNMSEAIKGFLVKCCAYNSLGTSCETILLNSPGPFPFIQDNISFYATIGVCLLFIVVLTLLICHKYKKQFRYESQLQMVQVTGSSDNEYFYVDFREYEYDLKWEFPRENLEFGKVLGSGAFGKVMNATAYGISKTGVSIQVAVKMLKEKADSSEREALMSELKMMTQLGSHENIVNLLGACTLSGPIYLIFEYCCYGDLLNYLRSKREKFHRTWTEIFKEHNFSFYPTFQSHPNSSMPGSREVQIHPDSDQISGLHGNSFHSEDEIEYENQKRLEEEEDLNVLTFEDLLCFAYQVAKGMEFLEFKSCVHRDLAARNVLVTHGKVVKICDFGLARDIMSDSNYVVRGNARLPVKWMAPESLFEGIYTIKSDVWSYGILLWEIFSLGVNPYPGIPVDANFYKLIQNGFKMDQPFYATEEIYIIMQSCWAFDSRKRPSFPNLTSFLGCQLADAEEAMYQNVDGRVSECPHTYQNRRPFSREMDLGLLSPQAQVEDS

[11] = species on record: Homo sapiens; experiment: Selectivity ratio of IC50 for inhibition of human JAK1 (866 to end residues) to inhibition of human JAK2 (808 to end residues)
[12] = species on record: Homo sapiens; experiment: Selectivity ratio of IC50 for inhibition of human JAK3 (781 to end residues) to inhibition of human JAK2 (808 to end residues)
[13] = Cmax in Sprague-Dawley rat at 5 mg/kg, po measured up to 24 hrs by LC/MS/MS analysis; type: ADME, organism-based; design: dose 5 mg/kg, route oral; conditions: in vivo
[14] = Tmax in Sprague-Dawley rat at 5 mg/kg, po measured up to 24 hrs by LC/MS/MS analysis; type: ADME, organism-based; conditions: in vivo
[15] = Terminal elimination half life in Sprague-Dawley rat at 5 mg/kg, po measured up to 24 hrs by LC/MS/MS analysis; type: ADME, organism-based; conditions: in vivo; for half-life: Sprague-Dawley, read-out: beta t1/2 (converted)
[16] = AUC (0 to t) in Sprague-Dawley rat at 5 mg/kg, po measured up to 24 hrs by LC/MS/MS analysis; type: ADME, organism-based; design: dose 5 mg/kg, time < 24 hr, route oral; conditions: in vivo; for AUC(0-t) at 24 h: Sprague-Dawley
[17] = Oral bioavailability in Sprague-Dawley rat at 5 mg/kg measured up to 24 hrs by LC/MS/MS analysis; type: ADME, organism-based; conditions: in vivo
[18] = target: Cytochrome P450 3A4 (Homo sapiens, UniProt P08684); experiment: Inhibition of CYP3A4 (unknown origin); type: ADME
Cytochrome P450 3A4, sequence (P08684 whole entry): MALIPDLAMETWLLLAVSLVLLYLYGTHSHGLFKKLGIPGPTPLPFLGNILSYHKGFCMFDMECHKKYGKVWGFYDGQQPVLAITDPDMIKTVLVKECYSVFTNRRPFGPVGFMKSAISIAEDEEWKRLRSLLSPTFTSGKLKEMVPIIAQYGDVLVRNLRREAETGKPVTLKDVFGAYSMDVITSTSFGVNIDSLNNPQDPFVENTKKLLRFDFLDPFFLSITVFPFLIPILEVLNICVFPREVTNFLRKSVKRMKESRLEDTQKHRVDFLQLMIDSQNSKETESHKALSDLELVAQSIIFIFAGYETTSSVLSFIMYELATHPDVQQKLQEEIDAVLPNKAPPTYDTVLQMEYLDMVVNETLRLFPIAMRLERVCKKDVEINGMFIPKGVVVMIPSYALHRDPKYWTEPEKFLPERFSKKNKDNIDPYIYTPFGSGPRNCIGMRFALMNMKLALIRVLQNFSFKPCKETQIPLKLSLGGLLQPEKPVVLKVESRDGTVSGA

[19] = system: SET-2; experiment: Antiproliferative activity against human SET2 cells overexpressing JAK2 […] mutant assessed as reduction in cell growth after 72 hrs by MTT assay; type: functional, cell-based; conditions: SET-2, 72 h
[20] = Anti-myelofibrosis activity against mouse BAF3(transformed) cells harboring with JAK2 V617F mutant allografted in NOD/SCID mouse assessed as reduction in liver weight at 60 mg/kg, po qd for 20 days measured on day 25 relative to control; type: functional
[21] = Anti-myelofibrosis activity against mouse BAF3(transformed) cells harboring with JAK2 V617F mutant allografted in NOD/SCID mouse assessed as reduction in spleen weight at 60 mg/kg, po qd for 20 days measured on day 25 relative to control; type: functional

| Compound | IC50 [1] [nM] | IC50 [2] [nM] | Activity [3] [%] | Activity [4] [%] | Activity [5] [%] | Activity [6] [%] | IC50 [7] [nM] | IC50 [8] [nM] | IC50 [9] [nM] | IC50 [10] [nM] | Ratio IC50 [11] | Ratio IC50 [12] | Cmax ([13]; Sprague-Dawley, read-out: Cmax) [ng/mL] | Tmax ([14]; Sprague-Dawley, read-out: Tmax) [h] | half-life [15] [h] | AUC(0-t) at 24 h [16] [ng·h/mL] | bioavailability [17] [%] | IC50 [18] [nM] | further results |
| --- | --- | --- | --- | --- | --- | --- | --- | --- | --- | --- | --- | --- | --- | --- | --- | --- | --- | --- | --- |
| C1=N/C2=N/c3ccc(OCCN4CCCC4)c(c3)COC/C=C/COCc3cccc(c3)C(=C1)N2 [PACRITINIB] | – | – | – | – | – | – | – | – | – | – | – | – | – | – | – | – | – | – | IC50 [19]: 916 nM |
| Cc1cnc(Nc2ccc(OCCN3CCCC3)cc2)nc1Nc1cccc(S(=O)(=O)NC(C)(C)C)c1 [FEDRATINIB] | – | – | – | – | – | – | – | – | – | – | – | – | – | – | – | – | – | – | inhibition in vivo at 60 mg/kg [20]: 69.8%; inhibition in vivo at 60 mg/kg [21]: 24.7% |

More lines, main results first:

| IC50 [1] [nM] | IC50 [2] [nM] | Activity [3] [%] | Activity [4] [%] | Activity [5] [%] | Activity [6] [%] | IC50 [7] [nM] | IC50 [8] [nM] | IC50 [9] [nM] | IC50 [10] [nM] | Ratio IC50 [11] | Ratio IC50 [12] | Cmax ([13]; Sprague-Dawley, read-out: Cmax) [ng/mL] | Tmax ([14]; Sprague-Dawley, read-out: Tmax) [h] | half-life [15] [h] | AUC(0-t) at 24 h [16] [ng·h/mL] | bioavailability [17] [%] | IC50 [18] [nM] | Compound | further results |
| --- | --- | --- | --- | --- | --- | --- | --- | --- | --- | --- | --- | --- | --- | --- | --- | --- | --- | --- | --- |
| 8.3 | 82 | 22 | 5 | 31 | 7 | 47 | 1 | 23 | 9 | 47 | 23 | 88.9 | 4.1 | 7.8 | 1510 | 43 | > 100000 | Cc1cnc(Nc2ccc(N3CCC(N(C)CCCO)CC3)c(F)c2)nc1-c1cnn(C(C)C)c1 | – |
| 6.4 | 24 | 27 | 4 | 33 | 7 | 76 | 2 | 39 | 15 | 38 | 19 | 56.5 | 2.3 | 5.9 | 305 | 31 | > 100000 | CCCCN(C)C1CCN(c2ccc(Nc3ncc(C)c(-c4cnn(C(C)C)c4)n3)cc2F)CC1 | – |
| 4.3 | 50 | 24 | 5 | 44 | 5 | 121 | 3 | 103 | 11 | 40 | 34 | – | – | – | – | 45 | > 100000 | Cc1cnc(Nc2ccc(N3CCC(N(C)CCN4CCN(C)CC4)CC3)c(F)c2)nc1-c1cnn(C(C)C)c1 | Cmax ([13]; 24 h): 2.3 ng/mL; Tmax ([14]; 24 h): 2.1 h; beta t1/2 ([15]; 24 h): 16 h; AUCt ([16]; 24 h): 2265 ng·h/mL |
